Patent US20260364184A1, “COMPOUND BASED ON OXOISOINDOLINYL-SUBSTITUTED TETRAHYDROPYRIMIDINE-DIONE AND USE THEREOF” (GLUETACS THERAPEUTICS (SHANGHAI) CO., LTD., priority 2023, published 2026)

These molecules were tested against T1, human Cereblon WT GST-tagged protein (CRBN) (Homo sapiens, UniProt Q96SW2) (assay: CRBN binding by HTRF (Cereblon binding kit)). Conditions: 0.5 μM, read-out: Inhibition Rate at 0.5 μM (%).
T1 construct: purchased CISBIO 64BDCRBNPEH
Method in brief: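 GST-tagged human Cereblon WT was incubated 3 h at room temperature with compound, thalidomide-Re tracer and Eu anti-GST antibody. Final compound concentrations were 10 to 0.00064 µM (7 points) or 2 and 0.5 µM. Inhibition rate was calculated from HTRF 665/620 nm ratios versus solvent and blank controls.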

T1 sequence (Q96SW2 whole entry): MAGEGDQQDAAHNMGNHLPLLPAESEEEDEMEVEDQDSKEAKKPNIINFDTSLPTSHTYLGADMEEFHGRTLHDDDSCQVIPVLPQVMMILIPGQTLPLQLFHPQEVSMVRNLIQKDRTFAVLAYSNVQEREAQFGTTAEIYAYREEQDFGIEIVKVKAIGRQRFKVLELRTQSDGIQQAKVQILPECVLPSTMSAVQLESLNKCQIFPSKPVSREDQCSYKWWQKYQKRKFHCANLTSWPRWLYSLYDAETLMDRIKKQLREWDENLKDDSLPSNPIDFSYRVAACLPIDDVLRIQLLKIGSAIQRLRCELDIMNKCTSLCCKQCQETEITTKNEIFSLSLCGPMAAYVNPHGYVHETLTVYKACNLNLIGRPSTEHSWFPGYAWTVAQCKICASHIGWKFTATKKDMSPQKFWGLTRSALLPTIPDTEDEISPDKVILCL

Row | inhibition at 0.5 µM [%] | Structure (SMILES)
1 | 10 to 20 | Cn1ncc(Cl)c1-c1cc(C(=O)N[C@H](CNCC2CCN(c3ccc4c(c3)C(=O)N(N3CCC(=O)NC3=O)C4=O)CC2)Cc2ccc(F)c(F)c2)oc1Cl [GT-08584, (S)-5-chloro-4-(4-chloro-1-methyl-1H-pyrazol-5-yl)-N-(1-(3,4-difluorophenyl)-3-(((1-(2-(2,4-dioxotetrahydropyrimidin-1(2H)-yl)-1,3-dioxoisoindolin-5-yl)piperidin-4-yl)methyl)amino)propan-2-yl) furan-2-carboxamide]

Same assay, conditions: 2 μM, read-out: Inhibition Rate at 2 μM (%)

Row | inhibition at 2 µM [%] | Structure (SMILES)
2 | 53 to 60 | Cn1ncc(Cl)c1-c1cc(C(=O)N[C@H](CNCC2CCN(c3ccc4c(c3)C(=O)N(N3CCC(=O)NC3=O)C4=O)CC2)Cc2ccc(F)c(F)c2)oc1Cl [GT-08584, (S)-5-chloro-4-(4-chloro-1-methyl-1H-pyrazol-5-yl)-N-(1-(3,4-difluorophenyl)-3-(((1-(2-(2,4-dioxotetrahydropyrimidin-1(2H)-yl)-1,3-dioxoisoindolin-5-yl)piperidin-4-yl)methyl)amino)propan-2-yl) furan-2-carboxamide]

What follows are molecules tested on AKT (assay: Western blot degradation of AKT). Conditions: hPBMC Cell; 24 hours.
Type: cell-based
Protocol: Conventional Western blot assay was performed to evaluate the effects of the compounds of the present disclosure on the expression of target proteins in cells.
(1) Cell Seeding and Protein Harvesting: The selected cells were processed according to the cell seeding procedure and protein harvesting procedure in Table II-2.
(2) To the collected supernatant, 5×SDS sample loading buffer was added, followed by denaturation at 95 °C for 5 minutes. The denatured samples were then separated by SDS-PAGE electrophoresis on a polyacrylamide gel. Proteins were transferred to a nitrocellulose membrane (0.45 μm NC membrane), blocked with blocking buffer at room temperature for 1 hour, and subjected to antibody incubation and development procedures according to the antibody manufacturer's instructions (Cell Signaling Technology).
Half-Maximal Degradation Concentration value (the drug concentration required for degrading proteins by 50%, abbreviated as DC50) reads method: comparing the grayscale values of Western blot bands from drug-treated samples with those from blank DMSO-treated controls, and identifying the drug concentration range at which the grayscale value is half that of the DMSO-treated control bands.
DC50 values can be calculated using ImageJ software to measure grayscale values of Western blot bands from drug-treated samples. The concentration-response curve is fitted to estimate the drug concentration corresponding to half the grayscale value.
Target protein remaining (%) refers to the percentage of target protein remaining in cells after treatment with protein degrader compounds.
Calculation method for target protein remaining (%): Use ImageJ software to measure grayscale values of Western blot bands from drug (protein degrader)-treated samples. The grayscale value of drug-treated bands is divided by that of internal control protein bands, and the resulting quotient is normalized to obtain the relative percentage of remaining target protein after protein degrader treatment.
Target protein degradation rate (%)=1−target protein remaining (%).

Row | Structure (SMILES) | Degradation of substrate protein AKT (substrate protein remaining %)
3 | Cn1ncc(Cl)c1-c1cc(C(=O)N[C@H](CNCc2ccc3c(c2)C(=O)N(N2CCC(=O)NC2=O)C3=O)Cc2ccc(F)c(F)c2)oc1Cl [GT-08579, (S)-5-chloro-4-(4-chloro-1-methyl-1H-pyrazol-5-yl)-N-(1-(3,4-difluorophenyl)-3-(((2-(2,4-dioxotetrahydropyrimidin-1(2H)-yl)-1,3-dioxoisoindolin-5-yl)methyl)amino)propan-2-yl) furan-2-carboxamide] | A (0%≤substrate protein remaining %≤80%)
4 | Nc1ncccc1-c1nc2ccc(-c3ccccc3)nc2n1-c1ccc(C2(NCc3ccc4c(c3)C(=O)N(N3CCC(=O)NC3=O)C4=O)CCC2)cc1 [GT-08578, 5-(((1-(4-(2-(2-aminopyridin-3-yl)-5-phenyl-3H-imidazo[4,5-b]pyridin-3-yl)phenyl)cyclobutyl)amino)methyl)-2-(2,4-dioxotetrahydropyrimidin-1(2H)-yl)isoindoline-1,3-dione] | A (0%≤substrate protein remaining %≤80%)
5 | Cn1ncc(Cl)c1-c1cc(C(=O)N[C@H](CNCC2CCN(c3ccc4c(c3)C(=O)N(N3CCC(=O)NC3=O)C4=O)CC2)Cc2ccc(F)c(F)c2)oc1Cl [GT-08584, (S)-5-chloro-4-(4-chloro-1-methyl-1H-pyrazol-5-yl)-N-(1-(3,4-difluorophenyl)-3-(((1-(2-(2,4-dioxotetrahydropyrimidin-1(2H)-yl)-1,3-dioxoisoindolin-5-yl)piperidin-4-yl)methyl)amino)propan-2-yl) furan-2-carboxamide] | A (0%≤substrate protein remaining %≤80%)
6 | Nc1ncccc1-c1nc2ccc(-c3ccccc3)nc2n1-c1ccc(C2(NCC3CCN(c4ccc5c(c4)C(=O)N(N4CCC(=O)NC4=O)C5=O)CC3)CCC2)cc1 [GT-08583, 5-(4-(((1-(4-(2-(2-aminopyridin-3-yl)-5-phenyl-3H-imidazo[4,5-b]pyridin-3-yl)phenyl)cyclobutyl)amino)methyl)piperidin-1-yl)-2-(2,4-dioxotetrahydropyrimidin-1(2H)-yl)isoindoline-1,3-dione] | A (0%≤substrate protein remaining %≤80%)
7 | Cn1ncc(Cl)c1-c1cc(C(=O)N[C@H](CNCc2ccc3c(c2)C(=O)N(N2CCC(=O)NC2=O)C3=O)Cc2cccc(F)c2)sc1Cl [GT-08577, (S)-5-chloro-4-(4-chloro-1-methyl-1H-pyrazol-5-yl)-N-(1-(((2-(2,4-dioxotetrahydropyrimidin-1(2H)-yl)-1,3-dioxoisoindolin-5-yl)methyl)amino)-3-(3-fluorophenyl)propan-2-yl)thiophene-2-carboxamide] | A (0%≤substrate protein remaining %≤80%)
8 | Cn1ncc(Cl)c1-c1cc(C(=O)N[C@@H](Cc2ccc(F)c(F)c2)CN2CCN(Cc3ccc4c(c3)CN(N3CCC(=O)NC3=O)C4=O)CC2)oc1Cl [GT-08575, (S)-5-chloro-4-(4-chloro-1-methyl-1H-pyrazol-5-yl)-N-(1-(3,4-difluorophenyl)-3-(4-((2-(2,4-dioxotetrahydropyrimidin-1(2H)-yl)-1-oxoisoindolin-5-yl)methyl)piperazin-1-yl)propan-2-yl) furan-2-carboxamide] | A (0%≤substrate protein remaining %≤80%)
9 | Cn1ncc(Cl)c1-c1cc(C(=O)N[C@@H](Cc2cccc(F)c2)CN2CCN(CC3CCN(c4ccc5c(c4)C(=O)N(N4CCC(=O)NC4=O)C5=O)CC3)CC2)sc1Cl [GT-08586, (S)-5-chloro-4-(4-chloro-1-methyl-1H-pyrazol-5-yl)-N-(1-(4-((1-(2-(2,4-dioxotetrahydropyrimidin-1(2H)-yl)-1,3-dioxoisoindolin-5-yl)piperidin-4-yl)methyl)piperazin-1-yl)-3-(3-fluorophenyl)propan-2-yl)thiophene-2-carboxamide] | A (0%≤substrate protein remaining %≤80%)
10 | Cn1ncc(Cl)c1-c1cc(C(=O)N[C@H](CNCC2CCN(c3ccc4c(c3)C(=O)N(N3CCC(=O)NC3=O)C4=O)CC2)Cc2cccc(F)c2)sc1Cl [GT-08582, (S)-5-chloro-4-(4-chloro-1-methyl-1H-pyrazol-5-yl)-N-(1-(((1-(2-(2,4-dioxotetrahydropyrimidin-1(2H)-yl)-1,3-dioxoisoindolin-5-yl)piperidin-4-yl)methyl)amino)-3-(3-fluorophenyl)propan-2-yl)thiophene-2-carboxamide] | A (0%≤substrate protein remaining %≤80%)
11 | Cn1ncc(Cl)c1-c1cc(C(=O)N[C@@H](Cc2ccc(F)c(F)c2)CN2CCN(Cc3ccc4c(c3)C(=O)N(N3CCC(=O)NC3=O)C4=O)CC2)oc1Cl [GT-08580, (S)-5-chloro-4-(4-chloro-1-methyl-1H-pyrazol-5-yl)-N-(1-(3,4-difluorophenyl)-3-(4-((2-(2,4-dioxotetrahydropyrimidin-1(2H)-yl)-1,3-dioxoisoindolin-5-yl)methyl)piperazin-1-yl)propan-2-yl) furan-2-carboxamide] | A (0%≤substrate protein remaining %≤80%)
12 | Cn1ncc(Cl)c1-c1cc(C(=O)N[C@@H](Cc2cccc(F)c2)CN2CCN(Cc3ccc4c(c3)C(=O)N(N3CCC(=O)NC3=O)C4=O)CC2)sc1Cl [GT-08581, (S)-5-chloro-4-(4-chloro-1-methyl-1H-pyrazol-5-yl)-N-(1-(4-((2-(2,4-dioxotetrahydropyrimidin-1(2H)-yl)-1,3-dioxoisoindolin-5-yl)methyl)piperazin-1-yl)-3-(3-fluorophenyl)propan-2-yl)thiophene-2-carboxamide] | A (0%≤substrate protein remaining %≤80%)
13 | Cn1ncc(Cl)c1-c1cc(C(=O)N[C@H](CNCc2ccc3c(c2)CN(N2CCC(=O)NC2=O)C3=O)Cc2cccc(F)c2)sc1Cl [GT-08572, (S)-5-chloro-4-(4-chloro-1-methyl-1H-pyrazol-5-yl)-N-(1-(((2-(2,4-dioxotetrahydropyrimidin-1(2H)-yl)-1-oxoisoindolin-5-yl)methyl)amino)-3-(3-fluorophenyl)propan-2-yl)thiophene-2-carboxamide] | A (0%≤substrate protein remaining %≤80%)
14 | Nc1ncccc1-c1nc2ccc(-c3ccccc3)nc2n1-c1ccc(C2(NCc3ccc4c(c3)CN(N3CCC(=O)NC3=O)C4=O)CCC2)cc1 [GT-08573, 1-(5-(((1-(4-(2-(2-aminopyridin-3-yl)-5-phenyl-3H-imidazo[4,5-b]pyridin-3-yl)phenyl)cyclobutyl)amino)methyl)-1-oxoisoindolin-2-yl)dihydropyrimidine-2,4 (1H,3H)-dione] | A (0%≤substrate protein remaining %≤80%)
